Data on two molecules can be found in US9937186B2, “Sulfonamides derived from tricyclyl-2-aminocycloalkanols as anticancer agents” (ICAHN SCHOOL OF MEDICINE AT MOUNT SINAI, priority 2014, dated 2018).

In one series the test system is H1650 cells. Put plainly: Colony formation (clonogenic) assay, H1650 cells. The format is cell-based. Particulars: Homo sapiens, NCI-H1650, 192 h; H1650, harvested 8 days after initial treatment. The procedure: (§1) Protocol for clonogenic assay follows Sangodkar et al., J Clin Invest 2012; 122:2637-51.
(§2) Cell culture and staining: For both A549luc and H1650 cells, 500 cells are seeded into each well of a 6-well plate and allowed to attach for 24 hours before drug treatment. The following day, cells are treated with either the appropriate dose of drug or an equivalent volume of DMSO (two replicates were treated for each condition). For each condition, depleted media was replaced with fresh media containing the equivalent drug dose four days after initial treatment. Cells are harvested either 7 (A549 luc) or 8 (H1650) days after initial treatment. Briefly, medium is aspirated from each well and the cells are washed twice with ice-cold PBS, then plates are allowed to dry at room temperature for 4 hours. Cells are fixed for one hour in a fixing solution consisting of 10% methanol and 10% glacial acetic acid in distilled water, then stained overnight in 1% (w/v) crystal violet dissolved in methanol. The next day, staining solution is aspirated from the wells and plates are washed gently with distilled water to remove excess stain before colony counting. Colonies are imaged on a ChemiDoc XRS+ (Bio-Rad) and images are exported as 8-bit TIFF files. Colonies are counted using the Colony Counter plugin in ImageJ, with colony size defined as between 4 and 400 square pixels, and minimum circularity set at 0.6. Duplicate wells are averaged to obtain a single value for each condition. Results (number of colonies) for A549 luc cells and results (number of colonies) for H1650 cells may be analyzed separately.

Series [1] deals with lung cancer cell line H441. Description: In vivo cancer model: subcutaneous xenograft of lung cancer cell line H441, tumor volume. Details: species or system mice; key to Mean Tumor Volume(T) / Median Tumor Volume(T): tumor volume in mm³. The note with it: oral gavage, 30 days; for Mean Tumor Volume(T) / Median Tumor Volume(T): in mm³ (unit assumed). The procedure:
(§3) To assess the in vivo effects of the compounds, subcutaneous xenograft of lung cancer cell line H441 was generated. Cells (5×10^6) were injected into the right flank of 6- to 8-week-old male BALB/c nu/nu mice (Charles River, Wilmington, Mass.). Tumor volume was assessed twice a week by caliper measurement. Mice were randomized to treatment groups based on initial tumor volume average of 100 mm^3 per group. Mice were dosed by oral gavage with 15 mg/kg Example 1a QD, 15 mg/kg Example 1a BID, 50 mg/kg Example 1a QD, or 50 mg/kg Example 3a QD. Mouse tumors were measured twice a week for the duration of the study. Mouse body weights were recorded weekly and percentage of mice body weights during treatment was calculated as: weight at each time point/initial weight×100. […] Mice underwent treatment for 30 days and were sacrificed 2 hours after the last dose. Tumors were then excised and cut for both formalin-fixation and snap frozen in liquid nitrogen. […] No statistically significant toxicity was observed as judged from animal body weights of compound treated groups versus vehicle control group as shown in Table B below.

A further series deals with A549luc cells. Put plainly: Colony formation (clonogenic) assay, A549luc cells. The format is cell-based. The note with it: Homo sapiens, 168 h; A549 luc, harvested 7 days after initial treatment. The procedure: as §1, §2
A short description of series [2]: In vivo cancer model: body weights and signs of toxicity. More on the design: species or system mice. The note with it: for % T/C (Mean body weight) / % T/C (Median body weight) / Mean body weight / Median body weight: oral gavage; for signs of toxicity (mucous diarrhea, abdominal stiffness and weight loss): oral gavage 15 or 50 mg/kg, 30 days, BALB/c nu/nu mice. The procedure: as §3

The test system of the next series is H1650 lung cancer cells. Put plainly: Cell viability assay (MTT), H1650 lung cancer cells. In kind it is cell-based. The note with it: Homo sapiens, NCI-H1650; H1650 cells. The procedure:
Cell Viability Assays (IC50 Determination)
Cell viability assays were performed according to Denizot, F. and R. Lang, Journal of Immunological Methods, 1986. 89(22): p. 271-277. H1650 lung cancer cells were plated at 150,000 cells per well in a 12 well plate. Twenty-four hours after plating, cells were treated as described with increasing concentrations of drug and control. Forty-eight hours after drug treatment, cells were treated with 100 μL of 3-(4,5-Dimethylthiazol-2-yl)-2,5-diphenyltetrazolium bromide (MTT) and incubated for 2 hours at 37 C. The MTT solution was subsequently replaced with 300 μL of n-propyl alcohol and re-aliquoted to a 96 well plate. Spectrophotometric analysis of each solution was performed using a 96 well plate reader at 600 nm in triplicate.

[3] abbreviates: 50 mg/kg QD, H441 xenograft mice.

As for `O=S(=O)(N[C@@H]1CCC[C@H](N2c3ccccc3Oc3ccccc32)[C@H]1O)c1ccc(OC(F)(F)F)cc1` (single isomer, unassigned) [Example 1a], the concentration for 50% growth inhibition (GI50) – broadly, the concentration giving 50% growth inhibition – in the series with H1650 cells came to 5 µM; with A549luc cells, 7.5 µM; in the series with H1650 lung cancer cells, 5 µM. Besides, the “% T/C (Mean Tumor Volume)” value in series [1] (15 mg/kg BID) was found to be 26.08%; in series [1] (15 mg/kg QD), 61.43%; in series [1] (50 mg/kg QD), 36.50%. Moreover, the “% T/C (Median Tumor Volume)” value was determined as 27.37% in series [1] (15 mg/kg BID), 60.69% in series [1] (15 mg/kg QD) and 33.78% in series [1] (50 mg/kg QD). Moreover, the “Mean Tumor Volume(T)” value in series [1] (15 mg/kg BID) turned out to be 315.40; in series [1] (15 mg/kg QD) it was 742.80; in series [1] (50 mg/kg QD, BALB/c nu/nu mice), 441.37. The figures for the “Median Tumor Volume(T)” value in series [1] (15 mg/kg BID), in series [1] (15 mg/kg QD) and in series [1] (50 mg/kg QD) were 274.43, 608.58 and 338.69, respectively. In addition, the “% T/C (Mean body weight)” value came to 95.27% in series [2] (15 mg/kg BID), 95.27% in series [2] (15 mg/kg QD) and 100.59% in series [2] (50 mg/kg QD). The “% T/C (Median body weight)” value in series [2] (15 mg/kg BID) was 99.58%; in series [2] (15 mg/kg QD) it was 93.68%; in series [2] (50 mg/kg QD), 99.72%. For the same molecule, the Mean body weight in series [2] (15 mg/kg BID) is recorded as 33.20 g; in series [2] (15 mg/kg QD), 33.20 g; in series [2] (setting [3]) it was 35.06 g. Also, the Median body weight in series [2] (15 mg/kg BID) is listed as 35.45 g; in series [2] (15 mg/kg QD) it was 33.35 g; in series [2] (50 mg/kg QD), 35.50 g. Further, in series [2], the “signs of toxicity (mucous diarrhea, abdominal stiffness and weight loss)” value was “no adverse signs were observed”.
`O=S(=O)(N[C@@H]1CCC[C@H](n2c3ccccc3c3ccccc32)[C@H]1O)c1ccc(OC(F)(F)F)cc1` (single isomer, unassigned) [Example 3a] had a GI50 in the series with H1650 cells of 5 µM. Also, in series [1] (50 mg/kg QD), the “% T/C (Mean Tumor Volume)” value is 32.13%, the “% T/C (Median Tumor Volume)” value came to 37.62% and the “Median Tumor Volume(T)” value worked out at 377.21. In addition, the “Mean Tumor Volume(T)” value in series [1] (50 mg/kg QD, BALB/c nu/nu mice) was 388.47. This molecule also showed a 50% growth inhibitory concentration (GI50) with A549luc cells of 7.5 µM. For the same molecule, in series [2] (50 mg/kg QD), the “% T/C (Mean body weight)” value is on record as 93.96%, the “% T/C (Median body weight)” value turned out to be 92.70% and the Median body weight is listed as 33.00 g. The Mean body weight in series [2] (setting [3]) is 32.74 g. Besides, in series [2], the “signs of toxicity (mucous diarrhea, abdominal stiffness and weight loss)” value was “no adverse signs were observed”. The GI50 in the series on H1650 lung cancer cells was found to be 10 µM.
